The structures appear in SMILES notation. “Also recorded” adds a separate entry of the source. Where two headings read alike, the source gives them in different places.

As usually defined, the EC50 is the concentration that produces a half-maximal response.

For one test, the system named is J774.2 macrophages. Briefly: Nitrite production in immunostimulated J774.2 macrophages (E.coli LPS + murine gamma-interferon, 24 h). The settings on record: for activity at 1 µM / activity at 3.16 µM / activity at 10 µM / activity at 31.6 µM / activity at 100 µM / activity at 1000 µM / EC50: Mus musculus; for activity at 1 µM / activity at 3.16 µM / activity at 10 µM / activity at 31.6 µM / activity at 100 µM / activity at 1000 µM: J774.2, 24 h, read-out: NITRITE (% OF CONTROL); for activity at 1000 µM: inhibitor concentration -3.000 log M (Table 3). It counts as cell-based, mouse. On the procedure: This example illustrates the effect of selected mercapto and seleno derivatives on nitrite production in J774.2 immunostimulated macrophages. The J774.2 mouse macrophage cell line was obtained from the ATCC and was cultured in DMEM with 4×10^-3 M L-glutamine and 10% fetal calf serum. Cells were cultured in 96-well plates with 200 μl culture medium until they reached 60-80% confluence. To induce INOS, fresh culture medium containing E.coli LPS (10 μg/ml) and murine gamma-interferon (IFN)(50 U/ml) was added. Nitrite accumulation in the cell culture medium in the absence or presence of various inhibitors was measured after 24 hours. Nitrite production, an indicator of NO synthesis, was measured in the supernatant of J774.2 macrophages by the Greiss reaction as described in Example 1 above.
This Example illustrates the effect of selected seleno derivatives on endotoxin-induced nitrite formation in J774.2 macrophages. The mouse macrophage cell line J774.2 obtained from the ATCC was cultured in DMEM with 4×10^-3 M L-glutamine and 10% fetal calf serum. Cells were cultured in 96-well plates with 200 μl culture medium until they reached 60-80% confluence. To induce iNOS, fresh culture medium containing E.coli LPS (10 μg/ml) and murine gamma-interferon (IFN)(50 U/ml) were added. Nitrite accumulation in the cell culture medium in the absence or presence of various inhibitors was measured after 24 hours. There was no detectable nitrite production by the J774.2 macrophages in the absence of immunostimulation. However, in the presence of IFN and LPS, nitrite concentration of the medium increased to 17±2 μM in the absence of inhibitor.

The target in the next test is T1, bNOS (Rattus norvegicus, UniProt P29476).
T1 construct: bNOS activity was measured using similar methods in homogenates of whole rat brains; from tissue; host or cells: homogenate of whole rat brains
T1 sequence (P29476 whole entry): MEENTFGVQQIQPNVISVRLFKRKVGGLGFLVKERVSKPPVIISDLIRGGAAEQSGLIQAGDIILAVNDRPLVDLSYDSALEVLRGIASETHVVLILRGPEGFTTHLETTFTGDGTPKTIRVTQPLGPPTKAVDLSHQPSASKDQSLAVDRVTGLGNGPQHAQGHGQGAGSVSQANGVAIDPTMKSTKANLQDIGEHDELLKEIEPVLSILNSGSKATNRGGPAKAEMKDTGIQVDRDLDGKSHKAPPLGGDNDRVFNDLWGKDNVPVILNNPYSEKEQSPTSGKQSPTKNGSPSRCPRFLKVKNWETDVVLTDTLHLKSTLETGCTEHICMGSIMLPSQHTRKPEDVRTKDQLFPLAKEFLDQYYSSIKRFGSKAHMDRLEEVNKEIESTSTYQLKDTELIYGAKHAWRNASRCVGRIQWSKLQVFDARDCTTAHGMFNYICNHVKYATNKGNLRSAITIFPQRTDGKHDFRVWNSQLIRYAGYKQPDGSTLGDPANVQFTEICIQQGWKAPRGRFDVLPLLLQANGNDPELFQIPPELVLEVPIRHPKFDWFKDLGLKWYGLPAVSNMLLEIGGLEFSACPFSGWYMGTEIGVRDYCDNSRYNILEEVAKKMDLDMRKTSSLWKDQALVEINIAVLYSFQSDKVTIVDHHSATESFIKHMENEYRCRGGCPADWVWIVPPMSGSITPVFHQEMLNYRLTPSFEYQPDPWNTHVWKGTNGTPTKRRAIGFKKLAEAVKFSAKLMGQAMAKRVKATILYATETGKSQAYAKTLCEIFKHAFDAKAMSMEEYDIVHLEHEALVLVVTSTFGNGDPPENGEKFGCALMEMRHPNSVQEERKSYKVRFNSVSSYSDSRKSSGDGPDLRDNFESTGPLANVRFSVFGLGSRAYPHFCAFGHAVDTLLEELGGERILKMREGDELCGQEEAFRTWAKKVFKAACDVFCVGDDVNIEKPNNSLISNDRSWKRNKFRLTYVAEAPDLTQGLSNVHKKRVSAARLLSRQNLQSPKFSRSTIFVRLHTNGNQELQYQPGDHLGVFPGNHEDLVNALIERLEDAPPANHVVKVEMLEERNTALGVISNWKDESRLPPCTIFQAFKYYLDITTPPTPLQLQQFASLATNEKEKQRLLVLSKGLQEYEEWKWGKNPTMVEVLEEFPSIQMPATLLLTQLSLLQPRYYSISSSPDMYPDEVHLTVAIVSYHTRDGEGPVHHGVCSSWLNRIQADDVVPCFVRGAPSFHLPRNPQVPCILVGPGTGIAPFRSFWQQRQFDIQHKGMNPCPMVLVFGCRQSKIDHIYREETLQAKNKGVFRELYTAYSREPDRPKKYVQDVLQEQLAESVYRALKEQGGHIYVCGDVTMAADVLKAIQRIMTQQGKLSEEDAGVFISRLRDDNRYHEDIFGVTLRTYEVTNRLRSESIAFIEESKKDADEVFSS
Briefly: bNOS activity in homogenates of whole rat brains. It counts as biochemical.

Test [1] deals with T2, iNOS (Rattus norvegicus, UniProt Q06518). Nature of the test: Inhibition of iNOS activity in tissue homogenates (Table 2). It counts as biochemical. Further details: bNOS in tissue homogenates; from tissue; host or cells: tissue homogenate. To be noted: for EC50: iNOS (Table 2).
The target of test [2] is T2, iNOS. Nature of the test: iNOS activity in lung homogenates from rats treated with bacterial endotoxin. It counts as biochemical. Set-up: Lungs were obtained from rats which had been treated with bacterial endotoxin; from tissue; host or cells: lung homogenate from endotoxin-treated rats. The settings on record: for selectivity for iNOS: iNOS vs ecNOS EC50 values; for inhibition of iNOS activity, in words: lung homogenates, rats treated with endotoxin. On the procedure:
This Example illustrates the effect of selected mercapto and seleno derivatives on iNOS activity in lung homogenates prepared from rats treated with endotoxin. […] The homogenization buffer was composed of 50 mM tris-HCL, 0.1 mM EDTA, 0.1 mM EGTA and 1 mM phenylmethylsulfonyl chloride (pH 7.4). Cell suspensions were homogenized in the homogenization buffer on ice using a Tissue Tearor 985-370 homogenizer (BioSpec Products, Racine, Wis.).

The next test concerns J774 macrophages. Briefly: Nitrite production by immunostimulated J774 macrophages (endotoxin 24 h, Griess). It counts as cell-based, mouse. To be noted: for EC50: Mus musculus, J774, endotoxin 10 μg/ml, 24 h (Table 1), read-out: EC50 for the inhibition of nitrite production by stimulated J774 macrophages. On the procedure: This example illustrates the effect of selected mercapto derivatives on endotoxin-induced nitrite formation in J774.2 macrophages and on IL-1 gamma-interferon induced nitrite formation in cultured rat arctic smooth muscle cells. J774 macrophage cell lines were obtained from the American Type Culture Collection (ATCC) and were grown using standard methods in Dulbecco's Modified Eagle Medium (DMEM) supplemented with 10% fetal bovine serum, glutamine, penicillin (10,000 U/l) and streptomycin (10,000 U/l). Rat aortic smooth muscle cells (RASM) from Wistar rats were isolated by enzymatic dissociation using standard methods. The cells were positively identified as smooth muscle by indirect immunofluorescent staining for a-actin, using mouse anti-α-actin antibody and anti-mouse IgG fluorescein isothiocyanate (FITC) conjugate. RASM cells were grown in T-75 tissue culture flasks in 50% F12 nutrient medium and 50% Dulbecco's Modified Eagle Medium supplemented with 10% fetal bovine serum, glutamine, penicillin (10,000 U/l) and streptomycin (10,000 U/l). Cells were grown in 96-well plates for measure of nitrite production and cell viability. J774 macrophages were treated with endotoxin (10 μg/ml) for 24 hours; smooth muscle cells were treated with IL-1 (100 U/ml) and gamma-interferon (50 U/ml) for 48 hours.
Concentration of nitrite, the degradation product of NO in the culture medium, was determined by mixing equal volumes of medium with the Griess reagent (1% sulfanilamide/0.1% naphthylethylenediamine dihydrochloride/2.5% H3 PO4). The mixture was incubated for 10 minutes at room temperature to form the chromophore, then optical densities (OD) were determined at 550 nm (OD550). NaNO2 was used as the standard. Spectrophotometric measurements were performed in a dual-wavelength spectrophotometer.
Background: Nitrite, measured by Griess reagent, commonly stands in for NO production.

The next test concerns the target T3, ecNOS (Bos taurus, UniProt P29473).
T3 construct: the intimal surface of fresh bovine aortae was scraped and homogenized; from tissue; host or cells: homogenate of intimal scrapings of fresh bovine aortae
Briefly: ecNOS activity from intimal scrapings of fresh bovine aortae (conversion of [3H]-L-arginine to [3H]-L-citrulline). The format is biochemical. On the procedure: The intimal surface of fresh bovine aortae was scraped in the presence of homogenation buffer composed of 50 mM Tris-HCl, 0.1 mM ethylenediamine tetraacetic acid (EDTA) and 0.1 mM ethyleneglycol bis (beta-aminoethyl ether) (EGTA). Conversion of [^3 H]-L-arginine to [^3 H]-L-citrulline was measured in the homogenates as follows: cell homogenate (50 μl) was incubated in the presence of [^3 H]-L-arginine (10 μM, 5 kBq/tube), NADPH (2 mM), calmodulin (30 nM), tetrahydrobiopterin (5 μM) and calcium (2 mM) for 20 minutes at 37° C. in N-2-hydroxethyl piperazine-N-2-ethane sulfonic acid (HEPES) buffer (pH 7.5). Reactions were stopped by dilution with 1 ml of ice cold HEPES buffer (pH 5.5) containing EGTA (2 mM) and EDTA (2 mM). Reaction mixtures were applied to Dowex 50W (Na^+ form) columns and the eluted [^3 H]-L-citrulline activity was measured by scintillation counting. bNOS activity was measured using similar methods in homogenates of whole rat brains.
For a preparation rich in ecNOS, the intimal surface of fresh bovine aortae was scraped and homogenized. The homogenization buffer was composed of 50 mM tris-HCL, 0.1 mM EDTA, 0.1 mM EGTA and 1 mM phenylmethylsulfonyl chloride (pH 7.4). Cell suspensions were homogenized in the homogenization buffer on ice using a Tissue Tearor 985-370 homogenizer (BioSpec Products, Racine, Wis.). Conversion of [^3 H]-L-arginine to [^3 H]-L-citrulline was measured in the homogenates as described in Example 3 above.

Setting [3] is: inhibitor concentration -4.000 log M (Table 3).
The mark [4] stands for this setting: inhibitor concentration -5.000 log M (Table 3).
[5] abbreviates: inhibitor concentration -6.000 log M (Table 3).
Setting [6] is: inhibitor concentration -3.000 log M.
[7] abbreviates: inhibitor concentration -4.000 log M.
[8] abbreviates: inhibitor concentration -5.000 log M.
Where [9] appears, read: inhibitor concentration -6.000 log M.
Setting [10] is: inhibitor concentration -7.000 log M.
[11] abbreviates: ecNOS (Table 2), read-out: EC50 for inhibition of ecNOS activity in tissue homogenates.

For `N=C(N)NCCC[SeH]` [SPG, selenopropylguanidine], the “inhibition of nitrite production, in words” value with J774.2 macrophages (IFN and LPS) is listed as “dose-dependently inhibited nitrite production”. In the test on J774.2 macrophages, the activity at 1 µM was 100%, the activity at 3.16 µM was 73%, the activity at 10 µM was 11% and the activity at 31.6 µM came out at 4%. Further, the activity at 100 µM in the test on J774.2 macrophages was found to be 0%.

`N=C(N)NCCSSCCNC(=N)N` [GED, guanidinoethyldisulfide]: the “inhibition of nitrite production, in words” value in the test on J774.2 macrophages (IFN and LPS) is listed as “dose-dependent inhibition of nitrite production”. For the same compound, the “potency relative to reference compound L-NMA” value in the test on J774.2 macrophages (IFN and LPS) is given as “higher than the reference compound L-NMA”. The activity at 1000 µM in the test on J774.2 macrophages was 0%. The activity at 100 µM in the test with J774.2 macrophages (setting [3]) worked out at 0%. In addition, the activity at 10 µM with J774.2 macrophages (setting [4]) worked out at 7%. Besides, the activity at 1 µM with J774.2 macrophages (setting [5]) is 36%. Further, the concentration giving a half-maximal response (EC50) in the test with J774.2 macrophages (J774.2, IFN and LPS, Example 9, read-out: EC50, inhibition of nitrite production) was found to be 0.3 µM; at bNOS it was 180 µM; at iNOS [1], 200 µM; on iNOS [2] (comparing Tables 4 and 5, read-out: EC50 on iNOS), 200 µM; in the test with J774 macrophages, 1 µM; on ecNOS (setting [11]) it was 630 µM. The “selectivity for iNOS” value on iNOS [2] was “relative selectivity of SEG and GED for iNOS”. Besides, the “iNOS ACTIVITY (%)” value on iNOS [2] (setting [6]) is reported as 22.000%; at iNOS [2] (setting [7]), 57.000%; at iNOS [2] (setting [8]), 100.000%; at iNOS [2] (setting [9]), 100.000%; at iNOS [2] (setting [10]), 100.000%. Moreover, the “inhibition of iNOS activity, in words” value against iNOS [2] is “somewhat similar in their inhibitory effect on INOS activity”. For the same compound, the “inhibition of ecNOS activity, in words” value at ecNOS is “inhibited ecNOS activity less strongly than the L-NMA”.

With `NC1=NCC[Se]1` [ASZ, 2-aminoselenazoline], the “inhibition of nitrite production, in words” value in the test on J774.2 macrophages (IFN and LPS) is “dose-dependently inhibited nitrite production”. Also, in the test with J774.2 macrophages, the activity at 1 µM amounted to 100%, the activity at 3.16 µM was found to be 96%, the activity at 10 µM worked out at 60% and the activity at 31.6 µM is 37%. In addition, in the test with J774.2 macrophages, the activity at 100 µM was 14%.

Regarding `N=C(NCCC[C@H](N)C(=O)O)N[N+](=O)[O-]` [L-NA, N^G -Nitro-L-arginine, reference compound], the EC50 was 300 µM at iNOS [1] and around 1000 µM in the test with J774 macrophages.

For the compound `N=C(N)NCC[SeH]` [SEG, selenoethylguanidine], the “inhibition of nitrite production, in words” value with J774.2 macrophages (IFN and LPS) is given as “dose-dependent inhibition of nitrite production; also recorded: dose-dependently inhibited nitrite production”. For the same compound, in the test with J774.2 macrophages (IFN and LPS), the “potency relative to reference compound L-NMA” value is reported as “higher than the reference compound L-NMA”. Moreover, the activity at 1000 µM with J774.2 macrophages was found to be 0%. For the same compound, the results for the activity at 100 µM with J774.2 macrophages (setting [3]) and with J774.2 macrophages (inhibitor concentration -4 log M (Table 6)) were 7% and 14%, respectively. Further, the activity at 31.6 µM in the test on J774.2 macrophages (inhibitor concentration -4.5 log M (Table 6)) is 28%. In addition, the activity at 10 µM in the test on J774.2 macrophages (setting [4]) and in the test on J774.2 macrophages (inhibitor concentration -5 log M (Table 6)) was 50% throughout. Besides, in the test with J774.2 macrophages (inhibitor concentration -5.5 log M (Table 6)), the activity at 3.16 µM turned out to be 94%. Also, the results for the activity at 1 µM with J774.2 macrophages (setting [5]) and in the test on J774.2 macrophages (inhibitor concentration -6 log M (Table 6)) were 90% and 100%, respectively. Besides, the concentration giving a half-maximal response (EC50) amounted to 10 µM with J774.2 macrophages (J774.2, read-out: EC50, inhibition of nitrite production); 10 µM on iNOS [2]; 600 µM on ecNOS. For the same compound, on iNOS [2], the “selectivity for iNOS” value was “relative selectivity of SEG and GED for iNOS”. In addition, the “iNOS ACTIVITY (%)” value on iNOS [2] (setting [6]) was 0.0000%; at iNOS [2] (setting [7]), 15.000%; on iNOS [2] (setting [8]), 56.000%; at iNOS [2] (setting [9]) it was 86.000%; on iNOS [2] (setting [10]) it was 100.000%. For the same compound, the “inhibition of iNOS activity, in words” value against iNOS [2] is “inhibits iNOS activity, more strongly”. Moreover, the “inhibition of ecNOS activity, in words” value at ecNOS is on record as “inhibited ecNOS activity less strongly than the L-NMA”.

Take `CCSCCNC(=N)N` [S-ethyl-MEG]: the half-maximal effective concentration (EC50) at bNOS was found to be 460 µM; on iNOS [1], 30 µM; in the test with J774 macrophages, 328 µM; at ecNOS (setting [11]), 850 µM. The “inhibition of iNOS activity, in words” value at iNOS [1] is reported as “relative potent inhibitors of iNOS activity”. Also, the “inhibition of nitrite production/accumulation, in words” value in the test with J774 macrophages (immunostimulated J774 macrophages) is “inhibitors of nitrite accumulation”. Further, the “inhibition of ecNOS activity, in words” value against ecNOS is on record as “less potent on ecNOS”.

With `CSCCNC(=N)N` [S-methyl-MEG, S-methyl-mercaptoethylguanidine], the half-maximal effective concentration (EC50) was determined as 8 µM at bNOS, 1.4 µM at iNOS [1], 80 µM with J774 macrophages and 43 µM at ecNOS (setting [11]).

The record behind these values is patent publication US5929063A, “Mercapto and seleno derivatives as inhibitors of nitric oxide synthase” (priority 1995, dated 1999).
